Reference: US5385908A, “Hindered esters of rapamycin” (American Home Products Corporation, priority 1993, dated 1995)
Structures can show the parent of a compound that is named as a salt. Where two headings read alike, the source gives them in different places.

What was measured:
pinch skin graft = pinch skin graft survival test procedure; assay type: in vivo, male BALB/c donors transplanted to male C3H(H-2K) recipients; details: 4 mg/kg, intraperitoneally or orally; mean ± S.D.; untreated rejected within 6-7 days
Description: (§1) Immunosuppressive activity for representative compounds of this invention was evaluated in an in vitro standard pharmacological test procedure to measure lymphocyte proliferation (LAF) and in three in vivo standard pharmacological test procedures. The pinch skin graft test procedure measures the immunosuppressive activity of the compound tested as well as the ability of the compound tested to inhibit or treat transplant rejection. The adjuvant arthritis standard pharmacological test procedure, which measures the ability of the compound tested to inhibit immune mediated inflammation. The adjuvant arthritis test procedure is a standard pharmacological test procedure for rheumatoid arthritis. Representative compounds of this invention were also evaluated in a heart allograft standard pharmacological test procedure which measures immunosuppressive activity of the compound tested as well as the ability of the compound tested to inhibit or treat transplant rejection. The procedures for these standard pharmacological test procedures are provided below.
Representative compounds of this invention were also evaluated in an in vivo test procedure designed to determine the survival time of pinch skin graft from male BALB/c donors transplanted to male C3 H(H-2K) recipients. The method is adapted from Billingham R. E. and Medawar P. B., J. Exp. Biol. 28:385-402, (1951 ). Briefly, a pinch skin graft from the donor was grafted on the dorsum of the recipient as a allograft, and an isograft was used as control in the same region. The recipients were treated with either varying concentrations of test compounds intraperitoneally or orally. Rapamycin was used as a test control. Untreated recipients serve as rejection control. The graft was monitored daily and observations were recorded until the graft became dry and formed a blackened scab. This was considered as the rejection day. The mean graft survival time (number of days±S.D.) of the drug treatment group was compared with the control group. […] Results are expressed as the mean survival time in days. Untreated (control) pinch skin grafts are usually rejected within 6-7 days. Compounds were tested using a dose of 4 mg/kg.

[1] = test system: cells from the thymus of normal BALB/c mice (lymphocyte proliferation); experiment: comitogen-induced thymocyte proliferation procedure (LAF); assay type: cell-based; details: read-out: LAF IC50
Description: as §1
The comitogen-induced thymocyte proliferation procedure (LAF) was used as an in vitro measure of the immunosuppressive effects of representative compounds. Briefly, cells from the thymus of normal BALB/c mice are cultured for 72 hours with PHA and IL-1 and pulsed with tritiated thymidine during the last six hours. Cells are cultured with and without various concentrations of rapamycin, cyclosporin A, or test compound. Cells are harvested and incorporated radioactivity is determined. Inhibition of lymphoproliferation is assessed as percent change in counts per minute from non-drug treated controls. For each compound evaluated, rapamycin was also evaluated for the purpose of comparison. An IC50 was obtained for each test compound as well as for rapamycin. […] The results obtained are provided as an IC50.

heart allograft = experiment: heterotropic heart allograft standard pharmacological test procedure; assay type: in vivo, BN rat neonate donors, male Lewis rat recipients; details: untreated rejected in about 9-10 days
Description: as §1
The ability of the compounds of this invention to induce immunosuppression and inhibit or treat transplantation rejection was evaluated in a heterotropic heart allograft standard pharmacological test procedure that emulates transplantation rejection that occurs in humans. The following briefly describes the procedure that was used. […]

[2] = test system: immune mediated inflammation (uninjected hind paw); experiment: adjuvant arthritis standard pharmacological test procedure; assay type: in vivo, male inbread Wistar Lewis rats; details: for Percent change in adjuvant arthritis versus control: 2 mg/kg oral
Description: as §1
The adjuvant arthritis standard pharmacological test procedure measures the ability of test compounds to prevent immune mediated inflammation and inhibit or treat rheumatoid arthritis. The following briefly describes the test procedure used. A group of rats (male inbread Wistar Lewis rats) are pre-treated with the compound to be tested (1 h prior to antigen) and then injected with Freud's Complete Adjuvant (FCA) in the right hind paw to induce arthritis. The rats are then orally dosed on a Monday, Wednesday, Friday schedule from day 0-14 for a total of 7 doses. Both hind paws are measured on days 16, 23, and 30. The difference in paw volume (mL) from day 16 to day 0 is determined and a percent change from control is obtained. […] The right hind paw inflammation, on the other hand, is caused by nonspecific inflammation. Compounds were tested at a dose of 2 mg/kg.

IgE-like antibodies = details: in vivo; cited from earlier work
Candida albicans = details: in vitro and in vivo; cited from earlier work
[3] = test system: experimental allergic encephalomyelitis; details: model for multiple sclerosis; cited from earlier work
[4] = Mus musculus, Lymphocyte, PHA and IL-1, 72 hours culture, tritiated thymidine last six hours

Row | Compound | Skin graft survival (mean survival time) (pinch skin graft) | IC50 [1, 4] | Percent change in adjuvant arthritis versus control ([2]; day 16) | also measured
1 | CO[C@H]1C[C@@H]2CC[C@@H](C)[C@@](O)(O2)C(=O)C(=O)N2CCCC[C@H]2C(=O)O[C@H]([C@H](C)C[C@@H]2CC[C@@H](OC(=O)C(C)(C)Cc3cccnc3)[C@H](OC)C2)CC(=O)[C@H](C)/C=C(\C)[C@@H](O)[C@@H](OC)C(=O)[C@H](C)C[C@H](C)/C=C/C=C/C=C/1C [Example 2, Rapamycin 42-ester with 2,2-dimethyl-3-(3-pyridinyl) propionic acid] | 13.6 ± 0.6 days | 0.83 nM | -62% | Heart allograft (mean graft survival time) (heart allograft; i.p., 300 μg/day): 29 days; Heart allograft (mean graft survival time) (heart allograft; p.o.): 11.5 days
2 | CO[C@H]1C[C@@H]2CC[C@@H](C)[C@@](O)(O2)C(=O)C(=O)N2CCCC[C@H]2C(=O)O[C@H]([C@H](C)C[C@@H]2CC[C@@H](OC(=O)C(C)(C)Cc3cccnc3)[C@H](OC)C2)CC(=O)[C@H](C)/C=C(\C)[C@@H](O)[C@@H](OC)C(=O)[C@H](C)C[C@H](C)/C=C/C=C/C=C/1C [Example 3, Rapamycin 42-ester with 2,2-dimethyl-3-(3-pyridinyl) propionic acid hydrochloride salt] |  |  |  | IC50 ([1]; PHA and IL-1, 72 hours culture, tritiated thymidine last six hours, hydrochloride salt): 1.03 nM; Percent change in adjuvant arthritis versus control ([2]; day 16, hydrochloride salt): -73%
3 | CO[C@H]1C[C@@H]2CC[C@@H](C)[C@@](O)(O2)C(=O)C(=O)N2CCCC[C@H]2C(=O)O[C@H]([C@H](C)C[C@@H]2CC[C@@H](OC(=O)C(C)(C)CCc3ccccn3)[C@H](OC)C2)CC(=O)[C@H](C)/C=C(\C)[C@@H](O)[C@@H](OC)C(=O)[C@H](C)C[C@H](C)/C=C/C=C/C=C/1C [Example 5, Rapamycin 42-ester with 2,2-dimethyl-4-(2-pyridinyl) butyric acid] |  | 0.58 nM | -75% | 
4 | CO[C@H]1C[C@@H]2CC[C@@H](C)[C@@](O)(O2)C(=O)C(=O)N2CCCC[C@H]2C(=O)O[C@H]([C@H](C)C[C@@H]2CC[C@@H](OC(=O)C(C)(C)CCCc3cccnc3)[C@H](OC)C2)CC(=O)[C@H](C)/C=C(\C)[C@@H](O)[C@@H](OC)C(=O)[C@H](C)C[C@H](C)/C=C/C=C/C=C/1C [Example 6, Rapamycin 42-ester with 2,2-dimethyl-5-(3-pyridinyl) pentanoic acid] | 12.50 ± 0.55 days | 3 nM | -45% | 
5 | CO[C@H]1C[C@@H]2CC[C@@H](C)[C@@](O)(O2)C(=O)C(=O)N2CCCC[C@H]2C(=O)O[C@H]([C@H](C)C[C@@H]2CC[C@@H](OC(=O)C(C)(C)Cc3ccccn3)[C@H](OC)C2)CC(=O)[C@H](C)/C=C(\C)[C@@H](O)[C@@H](OC)C(=O)[C@H](C)C[C@H](C)/C=C/C=C/C=C/1C [Example 7, Rapamycin 42-ester with 2,2-dimethyl-3-(2-pyridinyl) propionic acid] |  | 0.6 nM | -78% | 
6 | CO[C@H]1C[C@@H]2CC[C@@H](C)[C@@](O)(O2)C(=O)C(=O)N2CCCC[C@H]2C(=O)O[C@H]([C@H](C)C[C@@H]2CC[C@@H](OC(=O)C(C)(C)CCc3cccnc3)[C@H](OC)C2)CC(=O)[C@H](C)/C=C(\C)[C@@H](O)[C@@H](OC)C(=O)[C@H](C)C[C@H](C)/C=C/C=C/C=C/1C [Example 8, Rapamycin 42-ester with 2,2-dimethyl-4-(3-pyridinyl) butyric acid] |  | 1.2 nM | -50% | 
7 | CO[C@H]1C[C@@H]2CC[C@@H](C)[C@@](O)(O2)C(=O)C(=O)N2CCCC[C@H]2C(=O)O[C@H]([C@H](C)C[C@@H]2CC[C@@H](OC(=O)C(C)(C)Cc3ccncc3)[C@H](OC)C2)CC(=O)[C@H](C)/C=C(\C)[C@@H](O)[C@@H](OC)C(=O)[C@H](C)C[C@H](C)/C=C/C=C/C=C/1C [Example 9, Rapamycin 42-ester with 2,2-dimethyl-3-(4-pyridinyl) propionic acid] | 11.17 ± 1.47 days | 0.84 nM | -73% | 
8 | CO[C@H]1C[C@@H]2CC[C@@H](C)[C@@](O)(O2)C(=O)C(=O)N2CCCC[C@H]2C(=O)O[C@H]([C@H](C)C[C@@H]2CC[C@@H](OC(=O)C3(C)CCN(C)CC3)[C@H](OC)C2)CC(=O)[C@H](C)/C=C(\C)[C@@H](O)[C@@H](OC)C(=O)[C@H](C)C[C@H](C)/C=C/C=C/C=C/1C [Example 12, Rapamycin 42-ester with 1,4-dimethylpiperidine-4-carboxylic acid] | 12.83 ± 1.47 days | 0.58 nM | -75% | 
9 | CO[C@H]1C[C@@H]2CC[C@@H](C)[C@@](O)(O2)C(=O)C(=O)N2CCCC[C@H]2C(=O)O[C@H]([C@H](C)C[C@@H]2CC[C@@H](OC(=O)C3(C)CCCCN3C(=O)c3ccccc3)[C@H](OC)C2)CC(=O)[C@H](C)/C=C(\C)[C@@H](O)[C@@H](OC)C(=O)[C@H](C)C[C@H](C)/C=C/C=C/C=C/1C (stereo partly shown) [Example 13, Rapamycin 42-ester with 1-benzoyl-2-methyl-piperidine-2-carboxylic acid] |  | 2.9 nM |  | 
10 | CO[C@H]1C[C@@H]2CC[C@@H](C)[C@@](O)(O2)C(=O)C(=O)N2CCCC[C@H]2C(=O)O[C@H]([C@H](C)C[C@@H]2CC[C@@H](O)[C@H](OC)C2)CC(=O)[C@H](C)/C=C(\C)[C@@H](O)[C@@H](OC)C(=O)[C@H](C)C[C@H](C)/C=C/C=C/C=C/1C [rapamycin] |  |  |  | inhibition of formation of IgE-like antibodies (in words) (IgE-like antibodies): effectively inhibited the formation of IgE-like antibodies; IC50 ([1]; Mus musculus, Lymphocyte): 0.5 to 1.9 nM; antifungal activity (in words) (Candida albicans): antifungal activity, particularly against Candida albicans, both in vitro and in vivo; effect in experimental allergic encephalomyelitis model (in words) [3]: effective in the experimental allergic encephalomyelitis model; less immune induced inflammation than control rats ([2]; rapamycin treated rats, day 16): 70-90%
